The structures appear in SMILES notation. Read-outs that look alike come from different tables or passages of the source.

One may read the solubility as the concentration that dissolves in the medium under given conditions. A low value points to little dissolved substance. In general, IC50 refers to the concentration needed to halve the response being measured. Broadly, the EC50 is the concentration giving half of the maximal effect. The half-life is the time needed for the level to fall by half in the phase considered. Read a low half-life as fast loss.

Data set [1] can be described thus: Kinetic solubility. The settings on record: Universal Aqueous buffer pH 7.4. The format is physicochemical. The procedure: Kinetic Solubility: 396 μL of Universal Aqueous buffer (pH 7.4) was added to 4 μL of a 50 mM DMSO stock solution of each compound. Wells were agitated for 4 hours at 20° C. and then filtered. The compound was then diluted to serial concentrations with DMSO, followed by serial dilutions with ACN:H2O (1:1) prior to liquid chromatography-mass spectroscopy (LCMS) analysis. The calculated concentration (μM) of soluble compound was determined in reference to a standard curve.

Data set [2] deals with CYP2D6 (Homo sapiens, UniProt P10635). The data set can be described thus: Human CYP inhibition in human liver microsomes. In kind it is in vitro ADME. The procedure: Study samples (containing either control inhibitor or test compound) were added into the tubes, vortexed gently and pre-incubated for 5 min at 37° C. 20 μL of NADPH solution was aliquoted into all tubes, then vortexed to start the reaction and to assure adequate mixture of the NADPH. After mixing, the tubes were incubated for 20 min at 37° C. in a shaking water bath and then quenched in […] formic acid/acetonitrile solution. After quenching, the samples were vortexed vigorously for 1 min and centrifuged at 4,000 rpm for 15 min (4° C.). 100 μL of supernatant was transferred to 0.65 ml tubes for LCMS analysis by the bioanalytical method described earlier. The CYP450 substrates and control inhibitors for each enzyme was as follows: CYP1A2 (phenacetin, naphthoflavone), CYP2C9 (diclofenac, sulfaphenazole), CYP2C19 (omeprazole, tranylcypromine), CYP2D6 (dextromethorphan, quinidine), CYP3A4 (midazolam, ketoconazole).
CYP2D6, sequence (P10635 whole entry): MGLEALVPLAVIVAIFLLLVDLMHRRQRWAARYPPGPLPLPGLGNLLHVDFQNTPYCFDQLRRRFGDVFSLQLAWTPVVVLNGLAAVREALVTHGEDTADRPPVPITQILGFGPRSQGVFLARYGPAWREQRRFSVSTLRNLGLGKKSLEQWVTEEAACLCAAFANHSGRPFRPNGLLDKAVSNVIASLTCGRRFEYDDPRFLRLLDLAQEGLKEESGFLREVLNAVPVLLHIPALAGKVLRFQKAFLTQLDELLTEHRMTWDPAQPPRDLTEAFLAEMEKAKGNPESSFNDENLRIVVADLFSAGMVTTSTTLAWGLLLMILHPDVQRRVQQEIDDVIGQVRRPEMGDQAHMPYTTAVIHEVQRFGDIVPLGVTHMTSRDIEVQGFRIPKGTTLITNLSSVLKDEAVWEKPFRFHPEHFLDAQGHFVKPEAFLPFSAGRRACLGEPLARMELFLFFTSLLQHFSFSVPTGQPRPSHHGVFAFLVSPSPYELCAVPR
In general terms: Microsomes from liver hold many membrane-bound enzymes, among them those of drug oxidation.

Data set [3] in a line: in vitro. In kind it is in vitro ADME, human. The procedure:
Protein Binding in Plasma: The donor side of dialysis inserts were filled with 200 μL plasma (human and mouse; source BioDuro, San Diego, California, United States of America) containing 5 μM drug and 0.5% of DMSO and the receiver side of the dialysis inserts was filled with 350 μL of PBS buffer (100 mM, pH 7.4). The prepared dialysis apparatus was placed in a shaker (37° C., 100 rpm) for 5 hours. Two tubes with plasma containing 5 μM experimental compound were also prepared for stability test: one tube was placed in the […] for 5 hours and the other tube was placed in shaker ([…], 100 rpm) for 5 hours. Samples were collected from the donor and receiver sides of each dialysis insert. The same volume of blank plasma was added to buffer samples and blank buffer to plasma samples to make sure all sample mixtures contain 50% plasma and 50% buffer. 50 μL of each sample was mixed with 300 μL of acetonitrile containing 25 ng/ml internal standard (propranolol). All samples were vortexed for 1 minute and then centrifuged at 4000 rpm, 4° C. for 15 min. 100 μL of the supernatant was transferred to 0.65 ml tube for LCMS analysis. The amount of compound was determined on the basis of the peak area ratio (compound area to internal standard area) for the two sides, and protein binding is determined using the following equations: % Bound=100×([Area Ratio of Donor]5h*5−[Area Ratio of Receiver]5h)/([Area Ratio of Donor]5h*5). The percentage remaining at 37° C. after 5 hours was calculated on the basis of the amount measured at 0° C. after 5 hours.

Data set [4] deals with HIV-1 IIIB (wild-type). The data set can be described thus: HIV inhibition assay in TZM-bl cells, wild-type. The format is cell-based. The following applies: Human immunodeficiency virus 1, IIIB; for IC50: read-out: IC50 (TZM, WT). An outline of the steps: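 TZM-bl cells with 15 μg/mL DEAE-dextran were infected with H9-grown HIV-1 IIIB, wild-type or A17 (Y181C/K103N), in the presence of compound (0.005% or 0.05% DMSO) for 48 h at 37 °C. Luciferase RLU was read after lysis. Toxicity was measured in parallel by CellTiter-Blue fluorescence.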

For data set [5], the target named is T1, HIV I reverse transcriptase (Human immunodeficiency virus type 1 group M subtype B, UniProt P03366).
T1 construct: purchased Roche
The data set can be described thus: Reverse transcriptase inhibition assay (Roche kit, ELISA). The format is biochemical. The procedure:
NNRTI assay methods: Inhibition of HIV I reverse transcriptase was assessed via a kit from Roche (Indianapolis-Marion County, Indiana, United States of America) using the manufacture's protocol (500 μM final reverse transcriptase reaction amount). […] DMSO concentrations were kept the same for all dilutions used within an assay (0.05%). Final compound concentrations ranged from 5000 nM-0.05 nM with 2-fold serial dilutions. 96-well plates were set up with 20 μL compound dilution, 20 μL reverse transcriptase, and 20 μL template/nucleotides and incubated at 37° C. 5% CO2 for 1 hr in a reaction plate. 50 μL of each reaction was then transferred to a streptavidin conjugated 96-well plate and an ELISA assay was run based on manufacture's protocol. All compounds were tested in sextuplicate, with single wells of efavirenz dilutions on each plate.

[6] abbreviates: Table 3, TZM-bl, ± SEM, minimum 6 replicates.

`Nc1nc(Nc2ccc(Cl)cc2)nn1S(=O)(=O)c1ccc2ccccc2c1` [Compound 1, N3-(4-chlorophenyl)-1-(2-naphthylsulfonyl)-1,2,4-triazole-3,5-diamine] registered a solubility at 4 h in data set [1] of less than 0.2 µM. Also, the 50% inhibitory concentration (IC50) in data set [2] is greater than 50000 nM; in data set [4] (setting [6]) it was 9.33 ± 2.27 nM; in data set [4] (Table 4, TZM-bl), 9.33 nM. Moreover, in data set [3] (5 μM, dialysis 5 hours), the “Human plasma protein binding” value is listed as greater than 99.9%. Moreover, in data set [5], a half-maximal response (EC50) required 4840 nM.
As for `N#C/C=C/c1ccc2c(S(=O)(=O)n3nc(Nc4ccc(C#N)c(Cl)c4)nc3N)cccc2c1` [Compound 20, 4-[[5-amino-1-[[6-[2-cyanovinyl]-1-naphthyl]sulfonyl]-1,2,4-triazol-3-yl]amino]-2-chloro-benzonitrile], in data set [1] (20 °C, kinetic from dmso stock), the solubility at 4 h was less than 0.2 µM. Also, the half-inhibitory concentration (IC50) in data set [2] (human liver microsomes, substrate dextromethorphan, read-out: CYP inhibition IC50, 2D6) was greater than 50000 nM; in data set [4] (setting [6]), 0.263 ± 0.05 nM; in data set [4] (Table 4, TZM-bl) it was 0.309 nM; in data set [5], 1350 nM. The half-life at 5 μM in data set [3] (human, plasma) is greater than 6.21 h. Moreover, the fraction unbound in data set [3] (human, plasma, pH 7.4, 5 μM, dialysis 5 hours, read-out: Human plasma protein binding) was less than 0.001. In addition, the concentration for a half-maximal effect (EC50) was 0.22 nM in data set [4] (text b494, FIG. 2F, read-out: antiviral activity against wildtype, EC50) and 4060 nM in data set [5]. In data set [5], the “disparity between the IC50s for in-cell (TZM-bl) and reverse transcriptase HIV I inhibition” value is 1000 fold.

For the origin of these results see patent US20250179033A1 (priority 2021, published 2025).
